From ChEMBL document CHEMBL3351837 (Bioorg Med Chem Lett, 2014)

Key:
[1] = biological target: 3',5'-cyclic-AMP phosphodiesterase 4B (Homo sapiens, UniProt Q07343); experiment: Inhibition of human recombinant PDE4B1 activity assessed as residual cAMP concentration by HTRF assay
[2] = Half life in human plasma after 60 mins by […] analysis; format: ADME, cell-free
[3] = Half life in human lung S9 fraction after 60 mins by […] analysis; format: ADME, tissue-based
[4] = Half life in human lung homogenate after 60 mins by […] analysis; format: ADME, tissue-based
[5] = biological target: 3',5'-cyclic-AMP phosphodiesterase 4D (Homo sapiens, UniProt Q08499)
Description: Inhibition of human recombinant PDE4D2 activity assessed as residual cAMP concentration by HTRF assay

[6] = Apparent permeability of the compound at pH 7.4 buffer by PAMPA; format: physicochemical

3',5'-cyclic-AMP phosphodiesterase 4D, sequence (Q08499 whole entry): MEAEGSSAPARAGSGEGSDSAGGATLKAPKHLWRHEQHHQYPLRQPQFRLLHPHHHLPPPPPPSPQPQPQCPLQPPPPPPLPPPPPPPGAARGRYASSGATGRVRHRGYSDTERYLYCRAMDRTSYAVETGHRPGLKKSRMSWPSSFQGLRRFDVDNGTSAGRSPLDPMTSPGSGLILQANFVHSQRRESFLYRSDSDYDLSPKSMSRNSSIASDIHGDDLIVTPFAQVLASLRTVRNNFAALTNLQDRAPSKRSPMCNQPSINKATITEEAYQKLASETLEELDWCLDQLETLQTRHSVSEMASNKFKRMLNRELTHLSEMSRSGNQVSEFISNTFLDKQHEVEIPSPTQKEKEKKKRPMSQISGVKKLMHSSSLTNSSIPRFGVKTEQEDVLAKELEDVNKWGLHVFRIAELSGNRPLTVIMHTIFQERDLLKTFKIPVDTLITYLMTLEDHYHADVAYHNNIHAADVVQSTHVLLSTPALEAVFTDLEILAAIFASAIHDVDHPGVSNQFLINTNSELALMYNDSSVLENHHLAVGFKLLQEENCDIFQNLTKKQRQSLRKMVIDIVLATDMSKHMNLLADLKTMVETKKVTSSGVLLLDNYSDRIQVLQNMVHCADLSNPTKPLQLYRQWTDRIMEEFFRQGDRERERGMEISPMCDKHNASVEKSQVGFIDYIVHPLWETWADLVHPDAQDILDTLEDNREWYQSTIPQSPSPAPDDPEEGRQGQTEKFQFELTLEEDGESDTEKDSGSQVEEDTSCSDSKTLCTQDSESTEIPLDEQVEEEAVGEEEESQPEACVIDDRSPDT
3',5'-cyclic-AMP phosphodiesterase 4B, sequence (Q07343 whole entry): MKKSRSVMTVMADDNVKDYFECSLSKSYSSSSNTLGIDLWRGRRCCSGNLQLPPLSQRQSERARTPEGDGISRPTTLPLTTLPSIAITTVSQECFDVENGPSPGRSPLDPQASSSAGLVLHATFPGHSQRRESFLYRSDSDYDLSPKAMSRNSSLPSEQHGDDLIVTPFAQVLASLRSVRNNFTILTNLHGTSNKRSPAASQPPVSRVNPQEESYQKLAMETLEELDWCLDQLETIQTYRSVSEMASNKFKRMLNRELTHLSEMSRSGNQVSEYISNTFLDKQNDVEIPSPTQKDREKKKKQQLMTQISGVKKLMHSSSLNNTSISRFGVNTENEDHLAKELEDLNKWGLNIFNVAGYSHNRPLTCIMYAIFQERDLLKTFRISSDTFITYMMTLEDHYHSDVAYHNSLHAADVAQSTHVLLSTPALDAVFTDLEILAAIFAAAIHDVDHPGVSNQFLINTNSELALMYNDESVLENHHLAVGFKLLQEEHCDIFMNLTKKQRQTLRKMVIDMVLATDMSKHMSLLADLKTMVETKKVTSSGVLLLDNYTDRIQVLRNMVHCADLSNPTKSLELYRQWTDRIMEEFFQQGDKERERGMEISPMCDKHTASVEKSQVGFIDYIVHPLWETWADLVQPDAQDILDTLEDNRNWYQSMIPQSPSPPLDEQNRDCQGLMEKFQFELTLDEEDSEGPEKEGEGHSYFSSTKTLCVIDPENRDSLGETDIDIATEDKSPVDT

Row | Compound | IC50 [1] | half-life [2] | half-life [3] | half-life [4] | IC50 [5] | Papp [6]
1 | O=C(Nc1c(Cl)cncc1Cl)c1ccc(OC(F)F)c(OCCCNC2CCOC2=O)c1 (configuration not stated) | 5.4 nM | < 5 min | > 60 min | > 60 min | 18 nM | –
2 | O=C(Nc1c(Cl)cncc1Cl)c1ccc(OC(F)F)c(OCCCN[C@@H]2CCOC2=O)c1 | 12 nM | – | – | – | 7.3 nM | –
3 | O=C(Nc1c(Cl)cncc1Cl)c1ccc(OC(F)F)c(OCCCN[C@H]2CCOC2=O)c1 | 11 nM | – | – | – | 48 nM | –
4 | O=C(Nc1c(Cl)cncc1Cl)c1ccc(OC(F)F)c(OCCCNC(CCO)C(=O)O)c1 (configuration not stated) | 740 nM | – | – | – | 2300 nM | 0.02 ×10⁻⁶ cm/s
5 | O=C(Nc1c(Cl)cncc1Cl)c1ccc(OC(F)F)c(OCCCN[C@H](CCO)C(=O)O)c1 | 1700 nM | – | – | – | 7200 nM | –
6 | O=C(Nc1c(Cl)cncc1Cl)c1ccc(OC(F)F)c(OCCCN[C@@H](CCO)C(=O)O)c1 | 2700 nM | – | – | – | > 10000 nM | –
7 | O=C(Nc1c(Cl)cncc1Cl)c1ccc(OC(F)F)c(OCCCSC2CCOC2=O)c1 (configuration not stated) | 1.8 nM | < 5 min | > 60 min | 39 min | 5.5 nM | –
8 | O=C(Nc1c(Cl)cncc1Cl)c1ccc(OC(F)F)c(OCCCSC(CCO)C(=O)O)c1 (configuration not stated) | 5.5 nM | – | – | – | 9.9 nM | 0.14 ×10⁻⁶ cm/s
9 | O=C(Nc1c(Cl)cncc1Cl)c1ccc(OC(F)F)c(OCCCCNC2CCOC2=O)c1 (configuration not stated) | 4 nM | < 5 min | > 60 min | > 60 min | 6.6 nM | 4.7 ×10⁻⁶ cm/s
10 | O=C(Nc1c(Cl)cncc1Cl)c1ccc(OC(F)F)c(OCCCCNC(CCO)C(=O)O)c1 (configuration not stated) | 180 nM | – | – | – | 150 nM | 0.03 ×10⁻⁶ cm/s
11 | O=C(Nc1c(Cl)cncc1Cl)c1ccc(OC(F)F)c(OCCCCSC2CCOC2=O)c1 (configuration not stated) | 4.7 nM | < 5 min | > 60 min | – | 1.8 nM | –
12 | O=C(Nc1c(Cl)cncc1Cl)c1ccc(OC(F)F)c(OCCCCSC(CCO)C(=O)O)c1 (configuration not stated) | 8.8 nM | – | – | – | 4.5 nM | 0.05 ×10⁻⁶ cm/s
13 | O=C(Nc1c(Cl)c[n+]([O-])cc1Cl)c1ccc(OC(F)F)c(OCCCNC2CCOC2=O)c1 (configuration not stated) | 88 nM | 8 min | – | – | 170 nM | –
14 | COC(=O)CNCCCOc1cc(C(=O)Nc2c(Cl)cncc2Cl)ccc1OC(F)F | 21 nM | 19 min | – | – | 32 nM | 8.9 ×10⁻⁶ cm/s
15 | O=C(O)CNCCCOc1cc(C(=O)Nc2c(Cl)cncc2Cl)ccc1OC(F)F | 910 nM | – | – | – | 1500 nM | < 0.01 ×10⁻⁶ cm/s
16 | CC(C)NCC(O)COc1cccc2ccccc12 (configuration not stated) [PROPRANOLOL] | – | – | – | – | – | 10 ×10⁻⁶ cm/s
17 | CNC(=C[N+](=O)[O-])NCCSCc1ccc(CN(C)C)o1 [RANITIDINE] | – | – | – | – | – | 0.14 ×10⁻⁶ cm/s
